Test: xn = mol fraction of the nth substance listed
Conditions: 100 kPa, Liquid; for viscosity: Falling or rolling sphere viscometry; for mass density: Vibrating tube method

CCCC[N+](CC)(CC)CC.[Br-] [butyltriethyl ammonium bromide] + O
Conditions	mass density [kg/m3]	viscosity [mPa·s]
298.15 K, x1 = 0.02	1030.2	1.581
298.15 K, x1 = 0.04	1057.3	2.599
298.15 K, x1 = 0.06	1078.8	4.044
298.15 K, x1 = 0.08	1095.3	5.87
298.15 K, x1 = 0.105	1111	10.02
298.15 K, x1 = 0.13	1122.8	14.11
298.15 K, x1 = 0.16	1133.5	21.36
298.15 K, x1 = 0.189	1140.9	30.66
298.15 K, x1 = 0.22	1147.3	43.63
298.15 K, x1 = 0.253	1152.5	63.73
303.15 K, x1 = 0.02	1028.2	1.381
303.15 K, x1 = 0.04	1054.7	2.216
303.15 K, x1 = 0.06	1075.6	3.393
303.15 K, x1 = 0.08	1091.9	4.835
303.15 K, x1 = 0.105	1107.4	8.222
303.15 K, x1 = 0.13	1119.1	11.45
303.15 K, x1 = 0.16	1129.8	16.85
303.15 K, x1 = 0.189	1137.3	23.62
303.15 K, x1 = 0.22	1143.7	33
303.15 K, x1 = 0.253	1148.9	47.05
308.15 K, x1 = 0.02	1026	1.223
308.15 K, x1 = 0.04	1051.9	1.921
308.15 K, x1 = 0.06	1072.5	2.885
308.15 K, x1 = 0.08	1088.4	4.054
308.15 K, x1 = 0.105	1103.8	6.767
308.15 K, x1 = 0.13	1115.4	9.328
308.15 K, x1 = 0.16	1126.1	13.49
308.15 K, x1 = 0.189	1133.6	18.55
308.15 K, x1 = 0.22	1140.1	25.39
308.15 K, x1 = 0.253	1145.4	35.52
313.15 K, x1 = 0.02	1023.6	1.091
313.15 K, x1 = 0.04	1049.1	1.682
313.15 K, x1 = 0.06	1069.2	2.488
313.15 K, x1 = 0.08	1084.9	3.441
313.15 K, x1 = 0.105	1100.2	5.583
313.15 K, x1 = 0.13	1111.7	7.649
313.15 K, x1 = 0.16	1122.4	10.91
313.15 K, x1 = 0.189	1129.9	14.79
313.15 K, x1 = 0.22	1136.5	19.92
313.15 K, x1 = 0.253	1141.9	27.22
318.15 K, x1 = 0.02	1021	0.981
318.15 K, x1 = 0.04	1046.1	1.485
318.15 K, x1 = 0.06	1065.9	2.164
318.15 K, x1 = 0.08	1081.4	2.942
318.15 K, x1 = 0.105	1096.5	4.648
318.15 K, x1 = 0.13	1108	6.334
318.15 K, x1 = 0.16	1118.7	8.969
318.15 K, x1 = 0.189	1126.2	12.07
318.15 K, x1 = 0.22	1132.8	15.94
318.15 K, x1 = 0.253	1138.3	21.51
323.15 K, x1 = 0.02	1018.3	0.889
323.15 K, x1 = 0.04	1042.9	1.324
323.15 K, x1 = 0.06	1062	1.906
323.15 K, x1 = 0.08	1077.8	2.567
323.15 K, x1 = 0.105	1092.8	3.92
323.15 K, x1 = 0.13	1104.2	5.293
323.15 K, x1 = 0.16	1115	7.453
323.15 K, x1 = 0.189	1122.5	9.912
323.15 K, x1 = 0.22	1129.2	12.97
323.15 K, x1 = 0.253	1134.7	17.19
328.15 K, x1 = 0.02	1015.8	0.812
328.15 K, x1 = 0.04	1039.9	1.189
328.15 K, x1 = 0.06	1059.1	1.69
328.15 K, x1 = 0.08	1074.2	2.252
328.15 K, x1 = 0.105	1089.1	3.358
328.15 K, x1 = 0.13	1100.5	4.483
328.15 K, x1 = 0.16	1111.2	6.266
328.15 K, x1 = 0.189	1118.8	8.29
328.15 K, x1 = 0.22	1125.6	10.76
328.15 K, x1 = 0.253	1131.2	14.11
333.15 K, x1 = 0.02	1013.01	0.75
333.15 K, x1 = 0.04	1036.64	1.077
333.15 K, x1 = 0.06	1055.6	1.514
333.15 K, x1 = 0.08	1070.54	1.996
333.15 K, x1 = 0.105	1085.3	2.937
333.15 K, x1 = 0.13	1096.66	3.847
333.15 K, x1 = 0.16	1107.44	5.319
333.15 K, x1 = 0.189	1115.11	7.032
333.15 K, x1 = 0.22	1121.89	9.062
333.15 K, x1 = 0.253	1127.56	11.8
338.15 K, x1 = 0.02	1010	0.7
338.15 K, x1 = 0.04	1033.3	0.999
338.15 K, x1 = 0.06	1052	1.363
338.15 K, x1 = 0.08	1066.8	1.781
338.15 K, x1 = 0.105	1081.5	2.425
338.15 K, x1 = 0.13	1092.8	3.339
338.15 K, x1 = 0.16	1103.7	4.555
338.15 K, x1 = 0.189	1111.4	5.982
338.15 K, x1 = 0.22	1118.2	7.687
338.15 K, x1 = 0.253	1124	9.932
343.15 K, x1 = 0.02	1006.6	0.655
343.15 K, x1 = 0.04	1029.5	0.922
343.15 K, x1 = 0.06	1048.4	1.233
343.15 K, x1 = 0.08	1063.1	1.601
343.15 K, x1 = 0.105	1077.7	2.156
343.15 K, x1 = 0.13	1089	2.959
343.15 K, x1 = 0.16	1099.8	3.974
343.15 K, x1 = 0.189	1107.6	5.163
343.15 K, x1 = 0.22	1114.6	6.602
343.15 K, x1 = 0.253	1120.3	8.504
348.15 K, x1 = 0.02	1003.4	0.608
348.15 K, x1 = 0.04	1026.5	0.876
348.15 K, x1 = 0.06	1044.7	1.124
348.15 K, x1 = 0.08	1059.3	1.446
348.15 K, x1 = 0.105	1073.8	1.931
348.15 K, x1 = 0.13	1085.1	2.658
348.15 K, x1 = 0.16	1096	3.489
348.15 K, x1 = 0.189	1103.8	4.485
348.15 K, x1 = 0.22	1110.8	5.702
348.15 K, x1 = 0.253	1116.7	7.325
